The nature of this data set: Distribution in brain after ip administration. The data set is classed as in vivo, rat. Particulars: for Tmax / concentration at 5 min / concentration at 15 min / concentration at 30 min / concentration at 60 min / concentration at 120 min / concentration at 240 min: male, Wistar, rat, brain; for concentration at 5 min / concentration at 15 min / concentration at 30 min / concentration at 60 min / concentration at 120 min / concentration at 240 min: intraperitoneal, mean; for concentration at 5 min: 5 min after administration; for concentration at 15 min: 15 min after administration; for concentration at 30 min: 30 min after administration; for concentration at 60 min: 60 min after administration; for concentration at 120 min: 120 min after administration; for concentration at 240 min: 240 min after administration; for Penetration into the brain: summary table. The protocol:
For the pharmacokinetic study, a group of 56 adult male rats (Wistar, 220–250 g, […]) were used in the experiment. Animals were purchased from the Animal House of the Faculty of Pharmacy of Jagiellonian University Medical College, Krakow, Poland. […] These were then given through an intraperitoneally injections (ip) at a dose of 0.3 mg/kg and 0.4 mg/kg, respectively. Blood samples were collected at 0 min (predose), 5 min, 15 min, 30 min, 60 min, 120 min, and 240 min after compound administration. Blood and brain samples were collected under general anesthesia induced by ip injections of 50 mg/kg ketamine plus 8 mg/kg xylazine. Blood samples were taken in heparinized tubes and immediately centrifuged at 3500 rpm for 10 min, and plasma was collected. Brain and plasma samples were immediately frozen at – 80 ℃ for LC/MS/MS analysis. All experimental procedures were carried out according to EU Directive 2010/63/EU and approved by the I Local Ethics Committee for Animal Experiments of the Jagiellonian University in Krakow, Poland (No. 94/2016).
The pharmacokinetic parameters were calculated using a non-compartmental approach from the average concentration values, using Phoenix WinNonlin software (Certara, Princeton, NJ 08540 USA). The first-order elimination rate constant (λz) was calculated by linear regression of time versus log concentration. Next, the area under the mean plasma and the concentration in the brain versus the time curve (AUC0→t) were estimated using the log-linear trapezoidal rule (Eq. 1), where Cn is the concentration of the last sampling of each compound1 AUC0→t=∑i=1n(Ci+Ci+1)/2·ti+1-ti+Cn/λz.
The quantification of compounds in plasma and brain samples was performed using the Sciex API 3200 triple quadrupole mass spectrometer (Concord, Ontario, Canada) equipped with an electrospray (ESI) ionization interface. This instrument was coupled to an Elite LaChrom (Hitachi, USA) HPLC system. Data acquisition and processing were performed using Sciex Analyst 1.5.2 data collection and integration software. After preparation, the samples were injected (20 µL) onto XBridge C18 (2.1 mm × 30 mm, 3.5 μm, Waters, Milford, Massachusetts, USA) analytical column. The mobile phase consisted of 0.1% formic acid in acetonitrile (A) and 0.1% formic acid in water (B) was delivered in a gradient elution starting with 90% of eluent B, increasing for 2 min to 90% of eluent A, maintained for 3 min, and then returned for 5 min to 90% of eluent B, and maintained 90% of eluent B during 5 min at a flow rate of 300 µL/min. The total analysis time was 10 min. […] The ion spray source settings were as follows: spray voltage: 5.5 kV, heater temperature: 400 °C, curtain gas: 10 psi, source gas 1: 20 psi, and source gas 2: 20 psi.
Further dilutions were performed using the same solvent to prepare working standard solutions of the analyte at the following concentrations: 0.025, 0.05, 0.1, 0.25, 0.5, 1.0, 2.5, 5.0, 10, 25, and 50 µg/mL for calibration curve samples (CC) and 0.025, 0.075, 2.2, and 4.5 µg/mL for quality control samples (QC). To prepare samples for calibration curve or quality control samples, 45 µL of the matrix (plasma or brain homogenate) was added with 5 µL of internal standard solution (1 µg/mL) obtaining the final concentration of 100 ng/mL and 5 µL of standard working solutions at the needed CC or QC concentration levels. After the addition of the standard solution, the samples were mixed and purified.
A sample volume of 50 µL of plasma or brain homogenate was transferred to the clean Eppendorf tube and spiked with 5 µL of IS solution (1 µg/mL) obtaining the final concentration of 100 ng/mL. After 5 min of mixing (1500 rpm) proteins were precipitated using 200 µL ACN. After 10 min of sample shaking (1500 rpm), the incubation step was performed (10 min, 4 °C). The samples were then centrifuged (10,000 rpm, 10 min, 4 °C) and the supernatant was transferred to chromatographic vials for LC/MS/MS analysis.

[1] abbreviates: rat brain, ip, Guanabenz 0.3 mg/kg, 4-OH-Guanabenz 0.4 mg/kg.

Data on two compounds can be found in PMC10539439 (Pharmacological Reports, 2023).

Structures are written as SMILES.

Consider `N=C(N)N/N=C/c1c(Cl)cccc1Cl` [Guanabenz], for which the concentration at 5 min worked out at 45.6 ng/g, the concentration at 15 min was determined as 110 ng/g, the concentration at 30 min came to 164 ng/g and the concentration at 60 min is 183 ng/g. Moreover, the concentration at 120 min came out at 92.5 ng/g, the concentration at 240 min stood at 58.6 ng/g and the “Penetration into the brain” value is given as “Good”. The Tmax (ip) is 1 h. The Tmax (ip, 0.3 mg/kg) was not above 1 h. Under setting [1], this compound displayed a t0.5 of 116.1 min.
`Cl.N=C(N)NN=Cc1c(Cl)cc(O)cc1Cl` [4-OH-Guanabenz, 2-[(2,6-Dichloro-4-hydroxyphenyl)methylene]hydrazinecarboximidamide Hydrochloride]: the concentration at 5 min was found to be 13.3 ng/g, the concentration at 15 min came out at 64.5 ng/g, the concentration at 30 min amounted to 23.9 ng/g and the concentration at 60 min came to 4.54 ng/g. Further, the concentration at 120 min came out at 3.94 ng/g, the concentration at 240 min was found to be 3.2 ng/g and the “Penetration into the brain” value is “Poor”. The time of peak concentration (Tmax) (ip) was 0.25 h. Moreover, under setting [1], the AUC0→t is listed as 2573 ng ⋅ min/g and the t0.5 is listed as 112.7 min.
